The source of these data is ChEMBL document CHEMBL3272065 (J Med Chem, 1977).

Data set [1] is described as follows: Hydrolysis of the compound at pH 7.4 at 37 degC assessed as first-order rate coefficient at 3.4 x 10' -3 M. It counts as physicochemical. The settings on record: buffer, pH 7.4, 3400 µM.
Data set [2] in a line: Half life of the compound at pH 7.4 at 37 degC at 3.4 x 10' -3 M. It counts as physicochemical.

One may read the half-life as the time in which the quantity being followed falls by half. A high value points to slow loss. For `O=[N+]([O-])c1cc([N+](=O)[O-])c(NCCCSCCCl)c(S(=O)(=O)O)c1`, in data set [1], the K came out at 2 ×10⁻³ /s. Besides, the half-life at 3400 µM in data set [2] was 5.83 min.
